# According to patent US20230167127A1, “COMPOUNDS AND THEIR USE IN THE TREATMENT OF BACTERIAL INFECTION” (Hoffmann-La Roche Inc., priority 2020, published 2023):
# Where a name gives a salt, the structure may show the parent alone.
# System: Escherichia coli ATCC 25922
# Assay: 50% growth inhibitory concentration (IC50) determination, Iso-Sensitest broth dilution
# Type: cell-based
# Settings: Escherichia coli, ATCC25922, 16 h, strain Escherichia coli ATCC 25922; 10-point broth dilution, optical density at 600 nm over 16 h; read-out: Escherichia coli growth inhibition IC50
# In short: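 10-point twofold Iso-Sensitest broth dilution (e.g. 50 to 0.097 μM final) with DMSO stocks, incubated at 35±2° C. Growth followed by OD 600 nm every 20 min over 16 h; IC50 derived from growth inhibition during logarithmic phase.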
row,SMILES,IC50
1,"Cc1ncc(C#N)c2c1CC(CNCCC1CN(c3cnc4c(n3)NC(=O)CO4)C(=O)O1)C2 (stereo not shown) [Example 291, 1-methyl-6-[[2-[2-oxo-3-(3-oxo-4H-pyrazino[2,3-b][1,4]oxazin-6-yl)-1,3-oxazolidin-5-yl]ethylamino]methyl]-6,7-dihydro-5H-cyclopenta[c]pyridine-4-carbonitrile;2,2,2-trifluoroacetic acid]",< 97.7 nM
2,"O=C1COc2ccc(N3CC(CCNCC4Cc5ccccc5C4)OC3=O)nc2N1 (stereo not shown) [Example 87, 6-[5-[2-(2,3-dihydro-1H-inden-2-ylmethylamino)ethyl]-2-oxo-1,3-oxazolidin-3-yl]-4H-pyrido[3,2-b][1,4]oxazin-3-one]",584 nM
3,"CC(C)(N)COc1cc(F)c2c(c1)CC(CNCC[C@@H]1CN(c3cnc4c(n3)NC(=O)CO4)C(=O)O1)C2 (stereo partly drawn) [Example 342, 6-[(5R)-5-[2-[[6-(2-amino-2-methylpropoxy)-4-fluoro-2,3-dihydro-1H-inden-2-yl]methylamino]ethyl]-2-oxo-1,3-oxazolidin-3-yl]-4H-pyrazino[2,3-b][1,4]oxazin-3-one; formic acid]",180 nM
4,"NC1c2cccc(Cl)c2CC1CNCCC1CN(c2cnc3c(n2)NC(=O)CO3)C(=O)O1 (racemic) [Example 136, 6-[2-oxo-5-[2-[[rac-1,2-trans-1-amino-4-chloro-2,3-dihydro-1H-inden-2-yl]methylamino]ethyl]-1,3-oxazolidin-3-yl]-4H-pyrazino[2,3-b][1,4]oxazin-3-one; formic acid]",112 nM
5,"N#Cc1c(OCCN2CCNCC2)ccc2c1CC(CNCCC1CN(c3ccc4c(n3)NC(=O)CO4)C(=O)O1)C2 (stereo not shown) [Example 143, 2-[[2-[2-oxo-3-(3-oxo-4H-pyrido[3,2-b][1,4]oxazin-6-yl)-1,3-oxazolidin-5-yl]ethylamino]methyl]-5-(2-piperazin-1-ylethoxy)-2,3-dihydro-1H-indene-4-carbonitrile; formic acid]",833 nM
6,"Cc1ncc(F)c2c1CC(NCC(O)CC1CN(c3cnc4c(n3)NC(=O)CO4)C(=O)O1)C2 (single isomer, unassigned; isomer c) [Example 315, 6-[2-Oxo-5-[3-[(4-fluoro-1-methyl-6,7-dihydro-5H-cyclopenta[c]pyridin-6-yl)amino]-2-hydroxypropyl]-1,3-oxazolidin-3-yl]-4H-pyrazino[2,3-b][1,4]oxazin-3-one; formic acid, Isomer C]",668 nM
7,"NC1c2cccc(Cl)c2CC1CNCCCC1CN(c2ccc3c(n2)NC(=O)CO3)C(=O)O1 (racemic) [Example 227, 6-[2-Oxo-5-[3-[[rac-1,2-trans-1-amino-4-chloro-2,3-dihydro-1H-inden-2-yl]methylamino]propyl]-1,3-oxazolidin-3-yl]-4H-pyrido[3,2-b][1,4]oxazin-3-one]",132 nM
8,"O=C1COc2ncc(N3CC(CCNCC4Cc5cc(OCCN6CCOC6=O)cc(F)c5C4)OC3=O)nc2N1 (stereo not shown) [Example 304, 6-[5-[2-[[4-fluoro-6-[2-(2-oxo-1,3-oxazolidin-3-yl)ethoxy]-2,3-dihydro-1H-inden-2-yl]methylamino]ethyl]-2-oxo-1,3-oxazolidin-3-yl]-4H-pyrazino[2,3-b][1,4]oxazin-3-one; formic acid]",446 nM
9,"Cc1ncc(F)c2c1CC(NCC(O)CC1CN(c3cnc4c(n3)NC(=O)CO4)C(=O)O1)C2 (single isomer, unassigned; isomer a) [Example 313, 6-[2-Oxo-5-[3-[(4-fluoro-1-methyl-6,7-dihydro-5H-cyclopenta[c]pyridin-6-yl)amino]-2-hydroxypropyl]-1,3-oxazolidin-3-yl]-4H-pyrazino[2,3-b][1,4]oxazin-3-one; formic acid, Isomer A]",1900 nM
10,"CC(O)COc1cc(F)c2c(c1)CC(CNCCC1CN(c3cnc4c(n3)NC(=O)CO4)C(=O)O1)C2 (stereo not shown) [Example 351, 6-[5-[2-[[4-Fluoro-6-(2-hydroxypropoxy)-2,3-dihydro-1H-inden-2-yl]methylamino]ethyl]-2-oxo-1,3-oxazolidin-3-yl]-4H-pyrazino[2,3-b][1,4]oxazin-3-one; hydrochloride]",144 nM
